Melting point data for one compound are collected here from patent publication US8101750B2, “Process for the manufacturing of the compound 2-hydroxy-3-[5-(morpholin-4-ylmethyl)pyridin-2-yl]1H-indole-5-carbonitrile 701” (AstraZeneca AB, priority 2007, dated 2012).

For the compound `Cc1ccc(CN2CCOCC2)cn1`, the melting point was 51 to 52 °C.
